Source: patent publication US6881741B2 (ViroChem Pharma Inc., priority 2001, dated 2005)

What follows are compounds tested against recombinant HCV NS5B (HCV RNA-dependent RNA polymerase) (Hepatitis C virus genotype 1b, UniProt P26663) (assay: biochemical). Details: HCV polymerase activity, list of compounds of Example 27; read-out: IC50 (polymerase activity).
recombinant HCV NS5B (HCV RNA-dependent RNA polymerase), sequence (P26663 2420-3010 limits assumed): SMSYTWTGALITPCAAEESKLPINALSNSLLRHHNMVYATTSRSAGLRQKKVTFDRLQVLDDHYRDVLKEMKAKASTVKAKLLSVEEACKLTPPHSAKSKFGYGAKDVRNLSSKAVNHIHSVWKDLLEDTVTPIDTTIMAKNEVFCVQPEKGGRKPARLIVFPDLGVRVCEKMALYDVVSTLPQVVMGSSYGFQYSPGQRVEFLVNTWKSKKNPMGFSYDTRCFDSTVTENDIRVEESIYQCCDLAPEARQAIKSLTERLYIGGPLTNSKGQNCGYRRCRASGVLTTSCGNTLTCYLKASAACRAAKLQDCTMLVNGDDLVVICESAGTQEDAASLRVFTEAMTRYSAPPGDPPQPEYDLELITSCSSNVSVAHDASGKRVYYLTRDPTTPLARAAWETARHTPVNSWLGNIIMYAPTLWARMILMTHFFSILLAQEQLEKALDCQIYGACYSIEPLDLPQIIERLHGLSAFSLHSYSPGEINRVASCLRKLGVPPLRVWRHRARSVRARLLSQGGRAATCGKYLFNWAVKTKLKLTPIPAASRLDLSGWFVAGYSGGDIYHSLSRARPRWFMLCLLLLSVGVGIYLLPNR

SMILES | IC50
Cc1ccc(C(=O)N(c2cc(-c3ccccc3)sc2C(=O)O)C(C)C)c(C#N)c1 [Compound 431, 3-[(2-CYANO-4-METHYL-BENZOYL)- ISOPROPYL-AMINO]-5-PHENYL- THIOPHENE-2-CARBOXYLIC ACID] | 5 to 20 µM
COc1cccc(CN(C(=O)CC(C)C)c2cc(-c3ccccc3)sc2C(=O)O)c1 [Compound 472, 3-[(3-METHOXY-BENZYL)-(3-METHYL- BUTYRYL)-AMINO]-5-PHENYL- THIOPHENE-2-CARBOXYLIC ACID] | < 5 µM
Cc1ccc(N(C)C(=O)c2cc(-c3ccccc3)sc2C(=O)O)cc1 [Compound 584, 3-(METHYL-P-TOLYL-CARBAMOYL)-5- PHENYL-THIOPHENE-2-CARBOXYLIC ACID] | 5 to 20 µM
Cc1cccc(-c2cc(N(C(=O)c3ccc(C)cc3O)C(C)C)c(C(=O)O)s2)c1 [Compound 502, 3-[(2-HYDROXY-4-METHYL-BENZOYL)- ISOPROPYL-AMINO]-5-#M!-TOLYL- THIOPHENE-2-CARBOXYLIC ACID] | < 5 µM
Cc1ccc(C(=O)N(c2cc(-c3cccc(C(F)(F)F)c3)sc2C(=O)O)C(C)C)c(O)c1 [Compound 428, 3-[(2-HYDROXY-4-METHYL-BENZOYL)- ISOPROPYL-AMINO]-5-(3- TRIFLUOROMETHYL-PHENYL)- THIOPHENE-2-CARBOXYLIC ACID] | 5 to 20 µM
NC1CCC(N(C(=O)c2ccc(Cl)cc2Cl)c2cc(-c3ccccc3)sc2C(=O)O)CC1 (stereo not drawn) [Compound 528, 4-[(2-CARBOXY-5-PHENYL-THIOPHEN-3- YL(-(2,4-DICHLORO-BENZOYL)-AMINO]- CYCLOHEXYL-AMMONIUM; TRIFLUORO- ACETATE] | < 5 µM
O=C(O)c1sc(-c2ccccc2)cc1N(Cc1ccc(C(F)(F)F)cc1)C(=O)C1CCC1 [Compound 414, 3-[CYCLOBUTANECARBONYL-(4- TRIFLUOROMETHYL-BENZYL)-AMINO]-5- PHENYL-THIOPHENE-2-CARBOXYLIC ACID] | 5 to 20 µM
CC1CCC(C(=O)N(c2cc(-c3ccccc3)sc2C(=O)O)C(C)C)C1 (stereo not drawn) [Compound 408, 3-[ISOPROPYL-(3-METHYL- CYCLOPENTANECARBONYL)-AMINO]-5- PHENYL-THIOPHENE-2-CARBOXYLIC ACID] | 5 to 20 µM
CN(C(=O)C1CCCC1)c1cc(-c2ccccc2)sc1C(=O)O [Compound 497, 3-(CYCLOPENTANECARBONYL-METHYL- AMINO)-5-PHENYL-THIOPHENE-2- CARBOXYLIC ACID] | < 5 µM
O=C(NC1CCC(N(C(=O)c2ccc(Cl)cc2Cl)c2cc(-c3ccccc3)sc2C(=O)O)CC1)OCc1ccccc1 (stereo not drawn) [Compound 512, 3-[(4-BENZYLOXYCARBONYLAMINO- CYCLOHEXYL)-(2,4-DICHLORO- BENZOYL)-AMINO]-5-PHENYL- THIOPHENE-2-CARBOXYLIC ACID] | < 5 µM

Same assay, conditions: related polymerase activity (Example 27 list); read-out: IC50

SMILES | IC50
Cc1ccccc1S(=O)(=O)Nc1cc(-c2ccccc2)sc1C(=O)O [Compound 15, 5-PHENYL-3-(TOLUENE-2-SULFONYLAMINO)-THIOPHENE-2-CARBOXYLIC ACID] | > 20 µM
CC(C)N(C(=O)C1CCCCCC1)c1cc(-c2ccccc2)sc1C(=O)O [Compound 380, 3-(CYCLOHEPTANECARBONYL- ISOPROPYL-AMINO)-5-PHENYL- THIOPHENE-2-CARBOXYLIC ACID] | < 5 µM
COc1ccccc1-c1cc(NS(=O)(=O)c2ccccc2C)c(C(=O)O)s1 [Compound 104, 5-(2-METHOXY-PHENYL)-3-(TOLUENE-2-SULFONYLAMINO)-THIOPHENE-2-CARBOXYLIC ACID] | 5 to 20 µM
C#Cc1cc(NS(=O)(=O)c2ccccc2C)c(C(=O)O)s1 [Compound 80, 5-ETHYNYL-3-(TOLUENE-2-SULFONYLAMINO)-THIOPHENE-2-CARBOXYLIC ACID] | 5 to 20 µM
C=CCCC(=O)N(C)c1cc(-c2ccccc2)sc1C(=O)O [Compound 386, 3-(METHYL-PENT-4-ENOYL-AMINO)-5- PHENYL-THIOPHENE-2-CARBOXYLIC ACID] | 5 to 20 µM
C=CCN(C(=O)Cc1cccc(C)c1)c1cc(-c2ccccc2)sc1C(=O)O [Compound 354, 3-[ALLYL-(2-M-TOLYL-ACETYL)-AMINO]-5- PHENYL-THIOPHENE-2-CARBOXYLIC ACID] | 5 to 20 µM
Cc1ccc(C(=O)N(Cc2ccc(F)cc2F)c2cc(-c3ccccc3)sc2C(=O)O)cc1 [Compound 336, 3-[(2,4-DIFLUORO-BENZYL)-(4-METHYL- BENZOYL)-AMINO]-5-PHENYL- THIOPHENE-2-CARBOXYLIC ACID] | < 5 µM
Cc1ccc(S(=O)(=O)Nc2cc(-c3ccc(/C=C/C(=O)O)cc3)sc2C(=O)O)c(C)c1 [Compound 322, 5-[4-(2-CARBOXY-VINYL)-PHENYL]-3-(2,4- DIMETHYL-BENZENESULFONYLAMINO)- THIOPHENE-2-CARBOXYLIC ACID] | < 5 µM
CN(C(=O)Cc1ccccc1)c1cc(-c2ccccc2)sc1C(=O)O [Compound 175, 3-(METHYL-PHENYLACETYL-AMINO)-5-PHENYL-THIOPHENE-2-CARBOXYLIC ACID] | < 5 µM
C=CCN(C(=O)C1CCC1)c1cc(-c2ccccc2)sc1C(=O)O [Compound 398, 3-(ALLYL-CYCLOBUTANECARBONYL- AMINO)-5-PHENYL-THIOPHENE-2- CARBOXYLIC ACID] | > 20 µM
CCCC(=O)N(C)c1cc(-c2ccccc2)sc1C(=O)O [Compound 385, 3-(BUTYRYL-METHYL-AMINO)-5-PHENYL- THIOPHENE-2-CARBOXYLIC ACID] | 5 to 20 µM
O=C(O)c1sc(-c2ccccc2)cc1NC(=O)N1CCC(n2c(=O)[nH]c3ccccc32)CC1 [Compound 113, 3-{[4-(2-OXO-2,3-DIHYDRO-BENZOIMIDAZOL-1-YL)-PIPERIDINE-1-CARBONYL]-AMINO]-5-PHENYL-THIOPHENE-2-CARBOXYLIC ACID] | > 20 µM
Cc1ccc(S(=O)(=O)Nc2cc(-c3ccccc3)sc2C(=O)O)cc1 [Compound 13, 5-PHENYL-3-(TOLUENE-4-SULFONYLAMINO)-THIOPHENE-2-CARBOXYLIC ACID] | < 5 µM
Cc1ccc(-c2cc(NS(=O)(=O)c3ccc(F)cc3F)c(C(=O)O)s2)cc1 [Compound 119, 3-(2,4-DIFLUORO-BENZENESULFONYLAMINO)-5-P-TOLYL-THIOPHENE-2-CARBOXYLIC ACID] | < 5 µM
Cc1ccc(C(=O)N(Cc2cccc(C(C)(C)C)c2)c2cc(-c3ccccc3)sc2C(=O)O)cc1 [Compound 334, 3-[(3-TERT-BUTYL-BENZYL)-(4-METHYL- BENZOYL)-AMINO]-5-PHENYL- THIOPHENE-2-CARBOXYLIC ACID] | < 5 µM
O=C(Nc1cc(Cl)nc(Cl)c1)Nc1cc(-c2ccccc2)sc1C(=O)O [Compound 28, 3-[3-(2,6-DICHLORO-PYRIDIN-4-YL)-UREIDO]-5-PHENYL-THIOPHENE-2-CARBOXYLIC ACID] | < 5 µM
CN(C(=O)c1ccc(C(F)(F)F)c(F)c1)c1cc(-c2ccccc2)sc1C(=O)O [Compound 279, 3-[(3-FLUORO-4-TRIFLUOROMETHYL-BENZOYL)-METHYL-AMINO]-5-PHENYL-THIOPHENE-2-CARBOXYLIC ACID] | 5 to 20 µM
C=Cc1cc(NS(=O)(=O)c2ccccc2C)c(C(=O)O)s1 [Compound 71, 3-(TOLUENE-2-SULFONYLAMINO)-5-VINYL-THIOPHENE-2-CARBOXYLIC ACID] | 5 to 20 µM
Cc1ccccc1S(=O)(=O)Nc1cc(-c2cccs2)sc1C(=O)O [Compound 56, 4-(TOLUENE-2-SULFONYLAMINO)-[2,2′]BITHIOPHENYL-5-CARBOXYLIC ACID] | < 5 µM
Cc1ccc(C(=O)N(C)c2cc(-c3ccc(C)cc3)sc2C(=O)O)cc1 [Compound 199, 3-[METHYL-(4-METHYL-BENZOYL)-AMINO]-5-P-TOLYL-THIOPHENE-2-CARBOXYLIC ACID] | 5 to 20 µM
